# Test results published in ChEMBL document CHEMBL3351485 (ACS Med Chem Lett, 2014).
# Activity calls are given as the source filed them. The rule behind the calls is not given here.
# What was measured:
# [1] = biological target: T1, Sodium- and chloride-dependent GABA transporter 2 (Homo sapiens, UniProt Q9NSD5); test: Inhibition of human GAT2 transfected in CHO cells assessed as [3H]GABA uptake after 20 mins by liquid scintillation counting analysis; assay type: cell-based
# T1 sequence (Q9NSD5 whole entry): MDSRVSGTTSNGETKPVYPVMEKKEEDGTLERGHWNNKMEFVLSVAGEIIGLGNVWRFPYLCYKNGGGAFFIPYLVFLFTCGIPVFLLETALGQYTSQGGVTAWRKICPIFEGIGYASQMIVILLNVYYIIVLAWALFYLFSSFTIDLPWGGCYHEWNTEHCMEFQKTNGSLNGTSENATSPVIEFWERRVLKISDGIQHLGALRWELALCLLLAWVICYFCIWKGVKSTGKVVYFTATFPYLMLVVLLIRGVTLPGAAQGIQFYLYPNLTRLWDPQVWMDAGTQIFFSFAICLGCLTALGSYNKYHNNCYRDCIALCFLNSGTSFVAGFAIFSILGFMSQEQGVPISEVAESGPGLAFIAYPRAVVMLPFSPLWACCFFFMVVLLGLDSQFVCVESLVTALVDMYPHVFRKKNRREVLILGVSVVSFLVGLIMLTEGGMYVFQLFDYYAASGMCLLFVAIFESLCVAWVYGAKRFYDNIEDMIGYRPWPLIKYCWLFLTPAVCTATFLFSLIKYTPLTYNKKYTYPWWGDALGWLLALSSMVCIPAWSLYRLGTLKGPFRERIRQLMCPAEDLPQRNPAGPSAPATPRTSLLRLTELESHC
# [2] = biological target: T2, Sodium- and chloride-dependent betaine transporter (Homo sapiens) (UniProt P48065); test: Inhibition of human BGT1 transfected in CHO cells assessed as [3H]GABA uptake at 100 uM after 20 mins by liquid scintillation counting analysis; assay type: cell-based
# T2 sequence (whole entry): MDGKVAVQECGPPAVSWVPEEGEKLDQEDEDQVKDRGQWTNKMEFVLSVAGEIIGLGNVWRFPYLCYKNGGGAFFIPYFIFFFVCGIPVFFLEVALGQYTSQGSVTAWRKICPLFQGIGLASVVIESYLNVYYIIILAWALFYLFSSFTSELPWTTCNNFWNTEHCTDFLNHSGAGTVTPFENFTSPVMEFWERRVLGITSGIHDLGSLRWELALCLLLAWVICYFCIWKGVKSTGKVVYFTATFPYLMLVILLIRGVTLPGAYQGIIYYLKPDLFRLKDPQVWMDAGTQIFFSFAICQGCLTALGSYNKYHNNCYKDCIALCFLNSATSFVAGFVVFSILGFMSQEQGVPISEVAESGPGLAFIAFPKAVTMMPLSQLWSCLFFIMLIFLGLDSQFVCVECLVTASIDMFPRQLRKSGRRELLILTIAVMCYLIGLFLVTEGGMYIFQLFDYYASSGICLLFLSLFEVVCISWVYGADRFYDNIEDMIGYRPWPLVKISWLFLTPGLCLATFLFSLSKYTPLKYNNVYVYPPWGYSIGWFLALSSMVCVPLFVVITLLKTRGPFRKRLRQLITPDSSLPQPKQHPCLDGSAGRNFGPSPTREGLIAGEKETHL
# [3] = biological target: T3, Sodium- and chloride-dependent GABA transporter 3 (Homo sapiens) (UniProt P48066); details: CHO, 100 uM
# T3 sequence (whole entry): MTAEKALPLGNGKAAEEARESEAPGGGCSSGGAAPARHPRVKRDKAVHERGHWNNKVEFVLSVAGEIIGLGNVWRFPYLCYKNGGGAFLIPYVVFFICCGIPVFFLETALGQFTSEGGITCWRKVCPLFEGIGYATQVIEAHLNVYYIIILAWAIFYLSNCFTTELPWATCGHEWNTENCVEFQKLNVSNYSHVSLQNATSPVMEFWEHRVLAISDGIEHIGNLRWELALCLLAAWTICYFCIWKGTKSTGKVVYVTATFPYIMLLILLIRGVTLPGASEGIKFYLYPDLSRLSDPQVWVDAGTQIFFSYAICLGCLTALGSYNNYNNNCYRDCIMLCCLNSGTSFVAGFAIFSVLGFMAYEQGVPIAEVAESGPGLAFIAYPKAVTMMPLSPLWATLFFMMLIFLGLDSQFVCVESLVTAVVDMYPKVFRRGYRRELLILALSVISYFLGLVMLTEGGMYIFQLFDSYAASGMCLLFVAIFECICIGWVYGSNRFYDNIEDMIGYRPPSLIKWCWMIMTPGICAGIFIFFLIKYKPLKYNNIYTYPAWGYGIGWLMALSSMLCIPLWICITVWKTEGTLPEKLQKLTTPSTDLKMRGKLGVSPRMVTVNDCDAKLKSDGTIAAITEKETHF
# Description: Inhibition of human GAT3 transfected in CHO cells assessed as [3H]GABA uptake at 100 uM after 20 mins by liquid scintillation counting analysis
# [4] = biological target: T4, Sodium- and chloride-dependent betaine transporter (Homo sapiens, UniProt P48065); test: Inhibition of human BGT1 transfected in CHO cells assessed as [3H]GABA uptake after 20 mins by liquid scintillation counting analysis; assay type: cell-based
# T4 sequence (P48065 whole entry): T2 sequence (whole entry)
# [5] = biological target: T5, Sodium- and chloride-dependent GABA transporter 1 (Homo sapiens, UniProt P30531); test: Inhibition of human GAT1 transfected in CHO cells assessed as [3H]GABA uptake after 20 mins by liquid scintillation counting analysis; assay type: cell-based
# Target sequence in this assay (P30531 whole entry): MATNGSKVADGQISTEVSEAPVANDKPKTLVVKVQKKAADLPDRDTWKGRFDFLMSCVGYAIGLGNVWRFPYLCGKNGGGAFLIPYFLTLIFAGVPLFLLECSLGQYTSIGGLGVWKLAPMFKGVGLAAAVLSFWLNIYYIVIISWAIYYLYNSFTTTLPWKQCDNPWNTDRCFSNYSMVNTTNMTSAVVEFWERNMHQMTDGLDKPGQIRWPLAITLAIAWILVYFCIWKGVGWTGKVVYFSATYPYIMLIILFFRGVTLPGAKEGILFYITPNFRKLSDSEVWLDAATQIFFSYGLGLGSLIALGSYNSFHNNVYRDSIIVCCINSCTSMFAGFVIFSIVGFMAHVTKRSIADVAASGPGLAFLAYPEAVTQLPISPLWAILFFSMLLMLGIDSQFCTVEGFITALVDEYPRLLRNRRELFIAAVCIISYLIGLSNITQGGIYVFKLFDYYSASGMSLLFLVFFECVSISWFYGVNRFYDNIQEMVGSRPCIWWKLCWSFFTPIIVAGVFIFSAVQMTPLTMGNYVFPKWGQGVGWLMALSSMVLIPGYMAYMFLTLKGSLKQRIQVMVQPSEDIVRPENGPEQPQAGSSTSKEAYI
# [6] = biological target: T6, Sodium- and chloride-dependent GABA transporter 3 (Homo sapiens, UniProt P48066); test: Inhibition of human GAT3 transfected in CHO cells assessed as [3H]GABA uptake after 20 mins by liquid scintillation counting analysis; assay type: cell-based
# T6 sequence (P48066 whole entry): T3 sequence (whole entry)
# [7] = biological target: T5, Sodium- and chloride-dependent GABA transporter 1; test: Inhibition of human GAT1 transfected in CHO cells assessed as [3H]GABA uptake at 100 uM after 20 mins by liquid scintillation counting analysis; assay type: cell-based
# Target sequence in this assay (P30531 whole entry, looked up): as the sequence (P30531 whole entry) above
# [8] = biological target: T7, Sodium- and chloride-dependent GABA transporter 2 (Homo sapiens) (UniProt Q9NSD5); test: Inhibition of human GAT2 transfected in CHO cells assessed as [3H]GABA uptake at 100 uM after 20 mins by liquid scintillation counting analysis; assay type: cell-based
# T7 sequence (whole entry): T1 sequence (Q9NSD5 whole entry)
Structure (SMILES),IC50 [1] [µM],inhibition [2],inhibition [3],IC50 [4] [µM],IC50 [5] [µM],IC50 [6] [µM],inhibition [7],inhibition [8]
NCCC(=O)O [BETA-ALANINE],> 100,–,–,–,–,–,–,–
N[C@H]1C[C@H]1CC(=O)O,36.9,Active,Active,5.48,> 100,13.9,–,–
N[C@@]12CC[C@@H](C(=O)O)[C@@H]1C2,–,63.9%,inactive,–,–,–,inactive,inactive
COc1ccc(C(OCCN2CCC[C@H](C(=O)O)C2)(c2ccc(OC)cc2)c2ccc(OC)cc2)cc1,–,–,–,–,> 100,–,–,–
N[C@@]12CC[C@H](C(=O)O)[C@@H]1C2,> 100,97.6%,48.2%,0.59,> 100,76.3,12.2%,29%
COc1ccccc1C1(O)CCN(CCCn2c3ccccc3c3ccccc32)CC1,6.2,–,–,–,11.4,8.92,–,–
